Results from the supplement of paper PMC10307832.

Columns and labels:
Test in all cases: relative viability (nuclei count vs DMSO), 5 days (fraction); higher = more cells survive
ChaGo-K-1 = tested on: ChaGo-K-1
In short: (§1)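 Relative viability is defined as nuclei in treated wells over nuclei in vehicle wells. Duplicate plates were run and medians reported. Lung cancer cell lines in 1536-well plates were dosed by pin tool one day after seeding, with one drug or with a fixed anchor-drug dose plus five library-drug doses (not always all listed) in √10 steps, and nuclei were counted after 5 days.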

EMC-BAC-2 = tested on: EMC-BAC-2
In short: as §1

EPLC-272H = tested on: EPLC-272H
In short: as §1

HCC-78 = tested on: HCC-78
In short: as §1

HCC-827 = tested on: HCC-827
In short: as §1

LCLC-103H = tested on: LCLC-103H
In short: as §1

LK-2 = tested on: LK-2
In short: as §1

LOU-NH91 = tested on: LOU-NH91
In short: as §1

LU99A = tested on: LU99A
In short: as §1

LXF-289 = tested on: LXF-289
In short: as §1

NCI-H1666 = tested on: NCI-H1666
In short: as §1

NCI-H1975 = tested on: NCI-H1975
In short: as §1

NCI-H2085 = tested on: NCI-H2085
In short: as §1

NCI-H2126 = tested on: NCI-H2126
In short: as §1

NCI-H23 = tested on: NCI-H23
In short: as §1

NCI-H2405 = tested on: NCI-H2405
In short: as §1

NCI-H3122 = tested on: NCI-H3122
In short: as §1

NCI-H322M = tested on: NCI-H322M
In short: as §1

RERF-LC-KJ = tested on: RERF-LC-KJ
In short: as §1

SK-LU-1 = tested on: SK-LU-1
In short: as §1

SW 1573 = tested on: SW 1573
In short: as §1

SW 900 = tested on: SW 900
In short: as §1

`NC(=O)Nc1cc(-c2cccc(F)c2)sc1C(=O)N[C@H]1CCCNC1` [AZD7762] + CC(=O)Nc1cccc(-n2c(=O)n(C3CC3)c(=O)c3c(Nc4ccc(I)cc4F)n(C)c(=O)c(C)c32)c1 [Trametinib] (partner 0.02 µM) gave a relative viability (ChaGo-K-1; first compound 0.01 µM) of 0.871, a relative viability (ChaGo-K-1; first compound 0.03162 µM) of 0.914 and a relative viability (ChaGo-K-1; first compound 0.1 µM) of 0.93. It also gave a relative viability (ChaGo-K-1; first compound 0.3162 µM) of 0.9, a relative viability (ChaGo-K-1; first compound 1 µM) of 0.958 and a relative viability (EMC-BAC-2; first compound 0.01 µM) of 1.02. The relative viability (EMC-BAC-2; first compound 0.03162 µM) was 0.84, the relative viability (EMC-BAC-2; first compound 0.1 µM) was 0.921 and the relative viability (EMC-BAC-2; first compound 0.3162 µM) was 0.973. For the same compound, the relative viability (EMC-BAC-2; first compound 1 µM) was 0.839, the relative viability (EPLC-272H; first compound 0.01 µM) was 0.28 and the relative viability (EPLC-272H; first compound 0.03162 µM) was 0.297. The relative viability (EPLC-272H; first compound 0.1 µM) was 0.277, the relative viability (EPLC-272H; first compound 0.3162 µM) was 0.293 and the relative viability (EPLC-272H; first compound 1 µM) was 0.227. For the same compound, the relative viability (HCC-78; first compound 0.01 µM) was 0.937, the relative viability (HCC-78; first compound 0.03162 µM) was 0.864 and the relative viability (HCC-78; first compound 0.1 µM) was 0.828. For the same compound, the relative viability (HCC-78; first compound 0.3162 µM) was 0.969, the relative viability (HCC-78; first compound 1 µM) was 0.416 and the relative viability (HCC-827; first compound 0.01 µM) was 0.577. It also gave a relative viability (HCC-827; first compound 0.03162 µM) of 0.534, a relative viability (HCC-827; first compound 0.1 µM) of 0.561 and a relative viability (HCC-827; first compound 0.3162 µM) of 0.575. The relative viability (HCC-827; first compound 1 µM) was 0.376, the relative viability (LCLC-103H; first compound 0.01 µM) was 0.683 and the relative viability (LCLC-103H; first compound 0.03162 µM) was 0.674. The relative viability (LCLC-103H; first compound 0.1 µM) was 0.712, the relative viability (LCLC-103H; first compound 0.3162 µM) was 0.574 and the relative viability (LCLC-103H; first compound 1 µM) was 0.712. The relative viability (LK-2; first compound 0.01 µM) was 0.794, the relative viability (LK-2; first compound 0.03162 µM) was 0.552 and the relative viability (LK-2; first compound 0.1 µM) was 0.845. For the same compound, the relative viability (LK-2; first compound 0.3162 µM) was 0.617, the relative viability (LK-2; first compound 1 µM) was 0.562 and the relative viability (LOU-NH91; first compound 0.01 µM) was 0.78. It also gave a relative viability (LOU-NH91; first compound 0.03162 µM) of 0.793, a relative viability (LOU-NH91; first compound 0.1 µM) of 0.761 and a relative viability (LOU-NH91; first compound 0.3162 µM) of 0.66. The relative viability (LOU-NH91; first compound 1 µM) was 0.67, the relative viability (LU99A; first compound 0.01 µM) was 0.595 and the relative viability (LU99A; first compound 0.03162 µM) was 0.522. The relative viability (LU99A; first compound 0.1 µM) was 0.523, the relative viability (LU99A; first compound 0.3162 µM) was 0.586 and the relative viability (LU99A; first compound 1 µM) was 0.43. It also gave a relative viability (LXF-289; first compound 0.01 µM) of 0.618, a relative viability (LXF-289; first compound 0.03162 µM) of 0.699 and a relative viability (LXF-289; first compound 0.1 µM) of 0.692. The relative viability (LXF-289; first compound 0.3162 µM) was 0.458, the relative viability (LXF-289; first compound 1 µM) was 0.68 and the relative viability (NCI-H1666; first compound 0.01 µM) was 0.894. For the same compound, the relative viability (NCI-H1666; first compound 0.03162 µM) was 0.898, the relative viability (NCI-H1666; first compound 0.1 µM) was 0.927 and the relative viability (NCI-H1666; first compound 0.3162 µM) was 0.891. For the same compound, the relative viability (NCI-H1666; first compound 1 µM) was 0.901, the relative viability (NCI-H1975; first compound 0.01 µM) was 0.341 and the relative viability (NCI-H1975; first compound 0.03162 µM) was 0.377. For the same compound, the relative viability (NCI-H1975; first compound 0.1 µM) was 0.331, the relative viability (NCI-H1975; first compound 0.3162 µM) was 0.345 and the relative viability (NCI-H1975; first compound 1 µM) was 0.24. It also gave a relative viability (NCI-H2085; first compound 0.01 µM) of 0.514, a relative viability (NCI-H2085; first compound 0.03162 µM) of 0.559 and a relative viability (NCI-H2085; first compound 0.1 µM) of 0.632. For the same compound, the relative viability (NCI-H2085; first compound 0.3162 µM) was 0.713, the relative viability (NCI-H2085; first compound 1 µM) was 0.357 and the relative viability (NCI-H2126; first compound 0.01 µM) was 0.547. The relative viability (NCI-H2126; first compound 0.03162 µM) was 0.629, the relative viability (NCI-H2126; first compound 0.1 µM) was 0.529 and the relative viability (NCI-H2126; first compound 0.3162 µM) was 0.639. The relative viability (NCI-H2126; first compound 1 µM) was 0.675, the relative viability (NCI-H23; first compound 0.01 µM) was 0.477 and the relative viability (NCI-H23; first compound 0.03162 µM) was 0.36. For the same compound, the relative viability (NCI-H23; first compound 0.1 µM) was 0.421, the relative viability (NCI-H23; first compound 0.3162 µM) was 0.392 and the relative viability (NCI-H23; first compound 1 µM) was 0.201. The relative viability (NCI-H2405; first compound 0.01 µM) was 0.744, the relative viability (NCI-H2405; first compound 0.03162 µM) was 0.57 and the relative viability (NCI-H2405; first compound 0.1 µM) was 0.557. The relative viability (NCI-H2405; first compound 0.3162 µM) was 0.631, the relative viability (NCI-H2405; first compound 1 µM) was 0.347 and the relative viability (NCI-H3122; first compound 0.01 µM) was 0.22. For the same compound, the relative viability (NCI-H3122; first compound 0.03162 µM) was 0.231, the relative viability (NCI-H3122; first compound 0.1 µM) was 0.223 and the relative viability (NCI-H3122; first compound 0.3162 µM) was 0.243. It also gave a relative viability (NCI-H3122; first compound 1 µM) of 0.27, a relative viability (NCI-H322M; first compound 0.01 µM) of 0.548 and a relative viability (NCI-H322M; first compound 0.03162 µM) of 0.583. For the same compound, the relative viability (NCI-H322M; first compound 0.1 µM) was 0.526, the relative viability (NCI-H322M; first compound 0.3162 µM) was 0.58 and the relative viability (NCI-H322M; first compound 1 µM) was 0.369. It also gave a relative viability (RERF-LC-KJ; first compound 0.01 µM) of 0.878, a relative viability (RERF-LC-KJ; first compound 0.03162 µM) of 0.888 and a relative viability (RERF-LC-KJ; first compound 0.1 µM) of 0.996. It also gave a relative viability (RERF-LC-KJ; first compound 0.3162 µM) of 0.874, a relative viability (RERF-LC-KJ; first compound 1 µM) of 0.693 and a relative viability (SK-LU-1; first compound 0.01 µM) of 0.553. For the same compound, the relative viability (SK-LU-1; first compound 0.03162 µM) was 0.609, the relative viability (SK-LU-1; first compound 0.1 µM) was 0.393 and the relative viability (SK-LU-1; first compound 0.3162 µM) was 0.188. For the same compound, the relative viability (SK-LU-1; first compound 1 µM) was 0.24, the relative viability (SW 1573; first compound 0.01 µM) was 0.741 and the relative viability (SW 1573; first compound 0.03162 µM) was 0.502. The relative viability (SW 1573; first compound 0.1 µM) was 0.584, the relative viability (SW 1573; first compound 0.3162 µM) was 0.583 and the relative viability (SW 1573; first compound 1 µM) was 0.342. It also gave a relative viability (SW 900; first compound 0.01 µM) of 0.799, a relative viability (SW 900; first compound 0.03162 µM) of 0.794 and a relative viability (SW 900; first compound 0.1 µM) of 0.721. The relative viability (SW 900; first compound 0.3162 µM) was 0.862 and the relative viability (SW 900; first compound 1 µM) was 0.495.
